Test results taken from article PMC9775310, “Anticancer, Antimicrobial, and Antioxidant Activities of Organodiselenide-Tethered Methyl Anthranilates” (Biomolecules, 2022).

Assays:
Candida albicans [1] = test: Agar well diffusion assay, C. albicans; assay type: cell-based; details: ratio of inhibition zone to that of positive control
Procedure: (§1) According to the reported method, the OSe agents’ antimicrobial properties were estimated against Staphylococcus aureus (S. aureus), Escherichia coli (E. coli), and Candida albicans (C. albicans) microbial strains using the agar well diffusion assay. In addition, the MICs (in […]) were also recorded via the microdilution method following the reported procedure. Experimental details can be found in the Supplementary Materials Section S1 [16, 18].
(§2) The promising anticancer activities manifested by the OSe compounds encourage us to further evaluate their respective antimicrobial activity against a panel of gram-negative bacteria (e.g., E. coli) and the gram-positive bacteria (e.g., S. aureus) as well as a fungal strain (C. albicans) using the method of agar diffusion. The clotrimazole antifungal and the ampicillin antibacterial drugs were used as the positive controls. […]
(§3) 1.1.2. The antimicrobial activity
(§4) The antimicrobial activities of the OSe compounds were evaluated against C. albicans yeast as well as E. coli gram-negative and S. aureus gram-positive bacteria employing the agar well diffusion assay [ 4 ] .
(§5) Briefly, a concentration of 1 mM was prepared for each compound by dissolving in DMSO.
(§6) Paper discs of standard size […] were sterilized in an autoclave and soaked in 9 µL of the test compounds, and placed in the Petri dishes, which in turn contain a nutrient media (agar 9 g, peptone 5 g, and beef extract 3 g) seeded with the dedicated strain. Incubation lasted for 13 h at 36 0C. Experiments were replicated three times and the antifungal clotrimazole and antibiotic ampicillin were used as standards. The % activity index for the complex was determined and depicted in table 2. […]

HepG2 cells = test: MTT assay, antiproliferative activity, HepG2 liver carcinoma cells; assay type: cell-based; details: Homo sapiens, HepG2, 24 h, read-out: HepG2 IC50
Procedure: (§7) The anticancer activity of the OSe was performed using the MTT assay against liver (HepG2) and breast (MCF-7) carcinoma cells, as well as normal WI-38 cells following the reported method. Experimental details can be found in the Supplementary Materials Section S1.
(§8) Accordingly, the anticancer properties of the OSe hybrids were assessed against two cancer cell lines, i.e., HepG2 and MCF-7 cells. Furthermore, their corresponding cytotoxicity was also estimated against the immortalized lung WI-38 fibroblasts employing the MTT assay. The Adriamycin cancer drug was used as the positive control. The concentration inhibition, 50%, needed to kill half of the cells (IC50) was estimated from (concentration-response plots) and tabulated in Table 1.
(§9) 1.1. The biological assays
(§10) 1.1.1. The anticancer activity
(§11) The breast adenocarcinoma (MCF-7), Hepatocellular carcinoma (HEPG-2), and normal fibroblast (WI-38) cells were obtained from ATCC via Holding company for biological products and vaccines (VACSERA), Cairo, Egypt. The reagents […] medium, MTT, DMSO, and fetal bovine serum was obtained from Sigma Aldrich. Dulbecco’s modified Eagle’s medium was used as the culture medium for the cells, and the cytotoxicity was evaluated using the reported MTT assay. Doxorubicin was used as the positive reference, and the IC50 values were obtained from the corresponding dose-response curve.
(§12) This colorimetric assay is based on converting the yellow tetrazolium bromide (MTT) to a purple formazan derivative by mitochondrial succinate dehydrogenase in viable cells. Cell lines were cultured in […] medium with 10% fetal bovine serum. Antibiotics added were 100 units/ml penicillin and 100µg/ml streptomycin at 37 C in a 5% Co2 incubator. The cell lines were seeded in a 96-well plate at a density of 1.0x10^4 cells/well. at 37 C for 48 h under 5% […]
Finally, dimethyl sulfoxide (DMSO) in the volume of 100 µl is added to each well to dissolve the purple formazan formed. The colorimetric assay is measured and recorded at an absorbance of 570 nm using a plate reader (EXL 800, USA). […]

MCF-7 cells = test: MTT assay, antiproliferative activity, MCF-7 breast carcinoma cells; assay type: cell-based; details: Homo sapiens, MCF7, 24 h, read-out: MCF7 IC50
Procedure: as §7
as §8, with “control.” for “control. The concentration inhibition, 50%, needed to kill half of the cells (IC50) was estimated from (concentration-response plots) and tabulated in Table 1.”
as §9, §10, §11, §12
(§13) Finally, dimethyl sulfoxide (DMSO) in the volume of 100 µl is added to each well to dissolve the purple formazan formed. […]

WI-38 cells = test: MTT assay, cytotoxicity against normal WI-38 fibroblasts; assay type: cell-based; details: Homo sapiens, WI-38, 24 h, read-out: WI38 IC50
Procedure: as §7
as §8, with “control.” for “control. The concentration inhibition, 50%, needed to kill half of the cells (IC50) was estimated from (concentration-response plots) and tabulated in Table 1.”
as §9, §10, §11, §12, §13

Staphylococcus aureus [2] = test: Agar well diffusion assay, S. aureus; assay type: cell-based; details: ratio of inhibition zone to that of positive control
Procedure: as §1, §2, §3, §4, §5, §6

Staphylococcus aureus [3] = test: Agar well diffusion assay, S. aureus; assay type: cell-based; details: read-out: S. aureus ZID
Candida albicans [4] = test: Agar well diffusion assay, C. albicans; assay type: cell-based; details: read-out: C. Albicans ZID
[5] = ABTS radical scavenging bioassay; details: dose needed to decrease the absorbance by 50%
Source text: (§14) The DPPH and ABTS in vitro bioassays were used to assess the OSe antioxidant activities following the reported method. Experimental details can be found in the Supplementary Materials Section S1.
(§15) The redox modulation activities of the OSe compounds were extensively explored over the last decade owing to their chemopreventive and antioxidant potency. The latter is usually investigated by the ABTS and DPPH in vitro tests employing vitamin C as the positive control. The OSe compound’s magnitude estimated the antioxidant potential to decolorize the distinctive colors of the DPPH^. and ABTS^. radicals at 517 nm and 734 nm, respectively (Figure 2).
(§16) Figure 2 The OSe compounds redox activities assessment using the ABTS and DPPH experiments. All tests are mean ± SD. ABTS experiment: absorbance was followed at 734 nm for OSe compounds (50 µL, 1 mM in MeOH) and ABTS solution (60 µL). DPPH experiment: Absorbance was monitored after 30 min at 517 nm for OSe compounds (200 µL, 1 mM in MeOH) and DPPH (400 µL). […]
1.1.3.2. The ABTS bioassay
The antioxidant activity of the investigated compounds was assessed using 2,2’-azino-bis(3-ethylbenzothiazoline-6-sulphonic acid (ABTS) method. The radical cation derived from ABTS was prepared by the reaction of 60 mM ABTS solution with 0.3 M manganese dioxide solution in 0.1M phosphate buffer, pH 7. Then, the mixture was shaken, centrifuged, filtered, and the absorbance (Acontrol) of the resulting green-blue solution (ABTS radical solution) was measured at wavelength 734 nm. Then, […] of 1 mg/ml test compound in phosphate-buffered methanol was added. The absorbance (Atest) was measured. The reduction in color intensity was expressed as % inhibition. The % inhibition for each compound is calculated from the following equation
Inhibition% = (Acontrol-Asample)/(Acontrol)*100
Ascorbic acid (vitamin C) was used as a standard antioxidant (positive control). A blank sample was run without ABTS and using MeOH/phosphate buffer (1:1) instead of the sample. A negative control sample was run with MeOH/phosphate buffer (1:1) instead of a tested compound.

[6] = DPPH radical scavenging bioassay
Source text: as §14, §15, §16
1.1.3. The antioxidant activity
1.1.3.1. The DPPH bioassay
The hydrogen atom or electron donation ability of the corresponding compounds was measured by estimating the bleaching of the purple color of a methanolic solution of DPPH [5]. This spectrophotometric assay uses stable DPPH. reagent. The sample was prepared by adding […] of the OSe compounds (1 mM in methanol) to […] DPPH in methanol. After 30 min of incubation in the dark, the absorbance was read against a blank at […]. Ascorbic acid (vitamin C) and ebselen were used as standard antioxidants (positive control). A blank sample was run without DPPH. A negative control sample was run using methanol instead of the sample. The radical scavenging activity was […]
using the following equation:
Inhibition%= (Ablank-Asample)/(Ablank)*100. […]

Escherichia coli [7] = test: Agar well diffusion assay, E. coli; assay type: cell-based; details: read-out: E. coli ZID
Escherichia coli [8] = test: Agar well diffusion assay, E. coli; assay type: cell-based; details: ratio of inhibition zone to that of positive control
Procedure: as §1, §2, §3, §4, §5, §6

| IC50 [5] | IC50 ([6]; dose needed to decrease the absorbance by 50%) | SMILES | C. Albicans IA% (activity index) (Candida albicans [1]) | IC50 (HepG2 cells) | IC50 (MCF-7 cells) | IC50 (WI-38 cells) | melting point | S. aureus IA% (activity index) (Staphylococcus aureus [2]) | zone of inhibition at 20 µM (Staphylococcus aureus [3]) | zone of inhibition at 20 µM (Candida albicans [4]) | DPPH radical scavenging activity ([6]; 200 µL, 1 mM in MeOH, DPPH 400 µL, 30 min, 517 nm) | zone of inhibition at 20 µM (Escherichia coli [7]) | E. coli IA% (activity index) (Escherichia coli [8]) |
| --- | --- | --- | --- | --- | --- | --- | --- | --- | --- | --- | --- | --- | --- |
| – | – | COC(=O)c1cc([Se][Se]c2ccc(NC(=O)/C=C\C(=O)O)c(C(=O)OC)c2)ccc1NC(=O)/C=C\C(=O)O [Compound 13, (2Z,2’Z)-4,4′-((diselanediylbis(2-(methoxycarbonyl)-4,1-phenylene))bis(azanediyl)) bis (4-oxobut-2-enoic acid)] | 20.8% | 78.5 ± 3.9 µM | 76.2 ± 4 µM | 47 ± 2.8 µM | 149.5 to 151 °C | 19.0% | 4 mm | 5 mm | – | – | – |
| – | – | COC(=O)c1cc([Se][Se]c2ccc(NC=O)c(C(=O)OC)c2)ccc1NC=O [Compound 7, dimethyl 5,5′-diselanediylbis(2-formamidobenzoate)] | 16.7% | 83.7 ± 4.4 µM | 79 ± 4.2 µM | 45.7 ± 2.7 µM | 195 to 196 °C | 14.3% | 3 mm | 4 mm | – | – | – |
| 28.16 ± 0.19 µM | 19.18 ± 0.13 µM | O=C1O[C@H]([C@@H](O)CO)C(O)=C1O [Vitamin C, Ascorbic acid, reference compound] | – | – | – | – | – | – | – | – | 95% | – | – |
| – | – | COC(=O)c1cc([Se][Se]c2ccc(NC(C)=O)c(C(=O)OC)c2)ccc1NC(C)=O [Compound 8, dimethyl 5,5′-diselanediylbis(2-acetamidobenzoate)] | – | > 100 µM | > 100 µM | > 100 µM | 186 to 187 °C | – | – | – | – | – | – |
| – | – | COC(=O)c1cc([Se][Se]c2ccc(NC(=O)COc3ccccc3)c(C(=O)OC)c2)ccc1NC(=O)COc1ccccc1 [Compound 10, dimethyl 5,5′-diselanediylbis(2-(2-phenoxyacetamido) benzoate)] | 20.8% | 81.5 ± 4.2 µM | 53.5 ± 3 µM | 38.2 ± 2.5 µM | 152 to 154 °C | 38.1% | 8 mm | 5 mm | – | 5 mm | 21.7% |
